Assay results: publication PMC11915801, “Evolutionary trajectory of bacterial resistance to antibiotics and antimicrobial peptides in Escherichia coli” (mSystems, 2025)
Values after ≈ are worked out from the molar mass of the structure shown. Read-outs that look alike come from different tables or passages of the source.

What was measured:
Test in all cases: microbe, parasite or virus in culture
Type in all cases: cell-based, Escherichia coli
E. coli K-12 MG1655 = conditions: for MIC: Escherichia coli
Procedure: (§1) The broth microdilution method was used to measure the MIC values of antibiotics and peptides according to the Clinical and Laboratory Standards Institute guidelines. The MIC value is defined as the lowest drug concentration without visible bacteria.
Eight antibiotics and ten AMPs at the sub-inhibitory concentration were prepared. A 300-µL system, including 260 µL of MH broth, 30 µL of prepared drug, and 10 µL of bacterial culture, was used for resistance passages. After 12 h of incubation at 37℃ and 200 rpm, 10 µL of the above bacterial culture was added into the new sterile drug-containing broth. MIC values of bacterial culture were determined. The drug concentration was adjusted according to the MIC value change until the end of the 120 passages.

CHL80 (evolved MG1655) = conditions: broth microdilution, chloramphenicol-evolved strain; for MIC: Escherichia coli, MG1655
Text: (§2) To ensure the stable resistance evolution and inheritance of MG1655 under different drugs, we randomly selected three monoclonals from the evolved strains. The final antibiotic-evolved strains were designated as AMP120, AZI120, CHL80, CIP120, DOX120, KAN80, NIT70, and TMP30, while the final AMP-evolved strains were named COL120, Ind120, Omi120, Pex120, PGLA120, Pleu120, R8120, SAAP120, LI120, and SLAP120.
as §1

TMP30 (evolved MG1655) = conditions: broth microdilution, trimethoprim-evolved strain; for MIC: Escherichia coli, MG1655
Text: as §2, §1

AMP120 (evolved MG1655) = conditions: broth microdilution, ampicillin-evolved strain; for MIC: Escherichia coli, MG1655
Text: as §2, §1

CIP120 (evolved MG1655) = conditions: broth microdilution, ciprofloxacin-evolved strain; for MIC: Escherichia coli
Text: as §2, §1

KAN80 (evolved MG1655) = conditions: for MIC: Escherichia coli, MG1655
Text: as §2, §1

NIT70 (evolved MG1655) = conditions: broth microdilution, nitrofurantoin-evolved strain; for MIC: Escherichia coli, MG1655
Text: as §2, §1

AZI120 (evolved MG1655) = conditions: broth microdilution, azithromycin-evolved strain; for MIC: Escherichia coli, MG1655
Text: as §2, §1

COL120 (evolved MG1655) = conditions: for MIC: Escherichia coli, MG1655
Text: as §2, §1

DOX120 (evolved MG1655) = conditions: broth microdilution, doxycycline-evolved strain; for MIC: Escherichia coli, MG1655
Text: as §2, §1

[1] = MG1655, 12 h, read-out: MIC of MG1655 under the pressure of the same drug, generation 10
[2] = MG1655, read-out: MIC of MG1655 under the pressure of the same drug, generation primary
[3] = MG1655, as E2, generation 20, read-out: MIC of MG1655 under the pressure of the same drug, generation 20
[4] = MG1655, as E2, generation 30, read-out: MIC of MG1655 under the pressure of the same drug, generation 30
[5] = MG1655, as E2, generation 40, read-out: MIC of MG1655 under the pressure of the same drug, generation 40
[6] = MG1655, as E2, generation 50, read-out: MIC of MG1655 under the pressure of the same drug, generation 50
[7] = MG1655, as E2, generation 60, read-out: MIC of MG1655 under the pressure of the same drug, generation 60
[8] = MG1655, as E2, generation 70, read-out: MIC of MG1655 under the pressure of the same drug, generation 70
[9] = MG1655, as E2, generation 80, read-out: MIC of MG1655 under the pressure of the same drug, generation 80
[10] = MG1655, as E2, generation 90, read-out: MIC of MG1655 under the pressure of the same drug, generation 90
[11] = MG1655, as E2, generation 100, read-out: MIC of MG1655 under the pressure of the same drug, generation 100
[12] = MG1655, as E2, generation 110, read-out: MIC of MG1655 under the pressure of the same drug, generation 110
[13] = MG1655, as E2, generation 120, read-out: MIC of MG1655 under the pressure of the same drug, generation 120
[14] = broth microdilution, kanamycin-evolved strain
[15] = broth microdilution, colistin-evolved strain

| Compound | MIC (E. coli K-12 MG1655; [1]) | MIC (E. coli K-12 MG1655; [2]) | MIC (E. coli K-12 MG1655; [3]) | MIC (E. coli K-12 MG1655; [4]) | MIC (E. coli K-12 MG1655; [5]) | MIC (E. coli K-12 MG1655; [6]) | MIC (E. coli K-12 MG1655; [7]) | MIC (E. coli K-12 MG1655; [8]) | MIC (E. coli K-12 MG1655; [9]) | MIC (E. coli K-12 MG1655; [10]) | MIC (E. coli K-12 MG1655; [11]) | MIC (CHL80 (evolved MG1655)) | MIC (TMP30 (evolved MG1655)) | MIC (AMP120 (evolved MG1655)) | MIC (CIP120 (evolved MG1655)) | MIC (KAN80 (evolved MG1655); [14]) | MIC (NIT70 (evolved MG1655)) | MIC (AZI120 (evolved MG1655)) | MIC (COL120 (evolved MG1655); [15]) | MIC (DOX120 (evolved MG1655)) | further results |
| --- | --- | --- | --- | --- | --- | --- | --- | --- | --- | --- | --- | --- | --- | --- | --- | --- | --- | --- | --- | --- | --- |
| CC1(C)S[C@@H]2[C@H](NC(=O)[C@H](N)c3ccccc3)C(=O)N2[C@H]1C(=O)O [AMP, Ampicillin] | 8 µg/mL | 4 µg/mL | 8 µg/mL | 8 µg/mL | 16 µg/mL | 16 µg/mL | 16 µg/mL | 16 µg/mL | 16 µg/mL | 32 µg/mL | 32 µg/mL | 64 µg/mL (≈ 183 µM) | 4 µg/mL (≈ 11.4 µM) | 64 µg/mL (≈ 183 µM) | 16 µg/mL (≈ 45.8 µM) | 4 µg/mL (≈ 11.4 µM) | 4 µg/mL (≈ 11.4 µM) | 2 µg/mL (≈ 5.72 µM) | 4 µg/mL (≈ 11.4 µM) | 32 µg/mL (≈ 91.6 µM) | MIC (E. coli K-12 MG1655; [12]): 64 µg/mL; MIC (E. coli K-12 MG1655; [13]): 64 µg/mL |
| CC[C@H]1OC(=O)[C@H](C)[C@@H](O[C@H]2C[C@@](C)(OC)[C@@H](O)[C@H](C)O2)[C@H](C)[C@@H](O[C@@H]2O[C@H](C)C[C@H](N(C)C)[C@H]2O)[C@](C)(O)C[C@@H](C)CN(C)[C@H](C)[C@@H](O)[C@]1(C)O [AZI, Azithromycin] | 2 µg/mL | 2 µg/mL | 2 µg/mL | 2 µg/mL | 2 µg/mL | 4 µg/mL | 4 µg/mL | 4 µg/mL | 4 µg/mL | 4 µg/mL | 4 µg/mL | 2 µg/mL (≈ 2.67 µM) | 16 µg/mL (≈ 21.4 µM) | 1 µg/mL (≈ 1.34 µM) | 4 µg/mL (≈ 5.34 µM) | 2 µg/mL (≈ 2.67 µM) | 4 µg/mL (≈ 5.34 µM) | 16 µg/mL (≈ 21.4 µM) | 0.5 µg/mL (≈ 0.668 µM) | 2 µg/mL (≈ 2.67 µM) | MIC (E. coli K-12 MG1655; [12]): 8 µg/mL; MIC (E. coli K-12 MG1655; [13]): 16 µg/mL; collateral sensitivity of COL120 (fold change of MIC vs wild-type MG1655) (COL120 (evolved MG1655); MIC of COL120 compared with MG1655): exceeding fourfold |
| O=C(N[C@H](CO)[C@H](O)c1ccc([N+](=O)[O-])cc1)C(Cl)Cl [CHL, Chloramphenicol] | 8 µg/mL | 8 µg/mL | 16 µg/mL | 32 µg/mL | 64 µg/mL | 128 µg/mL | 256 µg/mL | 256 µg/mL | 512 µg/mL | – | – | 512 µg/mL (≈ 1580 µM) | 8 µg/mL (≈ 24.8 µM) | 16 µg/mL (≈ 49.5 µM) | 32 µg/mL (≈ 99 µM) | 2 µg/mL (≈ 6.19 µM) | 8 µg/mL (≈ 24.8 µM) | 8 µg/mL (≈ 24.8 µM) | 8 µg/mL (≈ 24.8 µM) | 64 µg/mL (≈ 198 µM) | collateral sensitivity of KAN80 (fold change of MIC vs wild-type MG1655) (KAN80 (evolved MG1655); MIC of KAN80 compared with MG1655): exceeding fourfold |
| C[C@H]1c2cccc(O)c2C(=O)C2=C(O)[C@]3(O)C(=O)C(C(N)=O)=C(O)[C@@H](N(C)C)[C@@H]3[C@@H](O)[C@@H]21 [DOX, Doxycycline] | 16 µg/mL | 2 µg/mL | 32 µg/mL | 32 µg/mL | 32 µg/mL | 32 µg/mL | 32 µg/mL | 32 µg/mL | 32 µg/mL | 32 µg/mL | 32 µg/mL | 16 µg/mL (≈ 36 µM) | 4 µg/mL (≈ 9 µM) | 2 µg/mL (≈ 4.5 µM) | 16 µg/mL (≈ 36 µM) | 1 µg/mL (≈ 2.25 µM) | 8 µg/mL (≈ 18 µM) | 8 µg/mL (≈ 18 µM) | 4 µg/mL (≈ 9 µM) | 32 µg/mL (≈ 72 µM) | MIC (E. coli K-12 MG1655; [12]): 32 µg/mL; MIC (E. coli K-12 MG1655; [13]): 32 µg/mL |
| NC[C@H]1O[C@H](O[C@H]2[C@H](O)[C@@H](O[C@H]3O[C@H](CO)[C@@H](O)[C@H](N)[C@H]3O)[C@H](N)C[C@@H]2N)[C@H](O)[C@@H](O)[C@@H]1O [KAN, Kanamycin] | – | – | – | – | – | – | – | – | – | – | – | – | – | – | – | – | – | – | – | – | increase in MIC values after experimental evolution (E. coli K-12 MG1655; MG1655, sub-inhibitory drug in MH broth over 60 days, final vs primary MIC): 256 fold; MIC of MG1655 under the pressure of the same drug, generation 20 (E. coli K-12 MG1655; as E2, generation 20): 32 µg/mL; MIC of MG1655 under the pressure of the same drug, generation 30 (E. coli K-12 MG1655; as E2, generation 30): 64 µg/mL; MIC of MG1655 under the pressure of the same drug, generation 40 (E. coli K-12 MG1655; as E2, generation 40): 64 µg/mL; MIC of MG1655 under the pressure of the same drug, generation 50 (E. coli K-12 MG1655; as E2, generation 50): 128 µg/mL; MIC of MG1655 under the pressure of the same drug, generation 60 (E. coli K-12 MG1655; as E2, generation 60): 256 µg/mL; MIC of MG1655 under the pressure of the same drug, generation 70 (E. coli K-12 MG1655; as E2, generation 70): 256 µg/mL; MIC of MG1655 under the pressure of the same drug, generation 80 (E. coli K-12 MG1655; as E2, generation 80): 512 µg/mL; MIC of MG1655 under the pressure of the same drug, generation primary (E. coli K-12 MG1655; broth microdilution (CLSI), primary MG1655 before passage): 2 µg/mL; MIC of MG1655 under the pressure of the same drug, generation 10 (E. coli K-12 MG1655; broth microdilution, line passaged in MH broth with sub-inhibitory drug, 12 h per passage, 37℃, generation 10): 16 µg/mL; MIC values of evolved MG1655, strain CHL80 (CHL80 (evolved MG1655)): 2 µg/mL; MIC values of evolved MG1655, strain TMP30 (TMP30 (evolved MG1655)): 4 µg/mL; MIC values of evolved MG1655, strain AMP120 (AMP120 (evolved MG1655)): 1 µg/mL; MIC values of evolved MG1655, strain CIP120 (CIP120 (evolved MG1655)): 4 µg/mL; MIC values of evolved MG1655, strain KAN80 (KAN80 (evolved MG1655); [14]): 512 µg/mL; MIC values of evolved MG1655, strain NIT70 (NIT70 (evolved MG1655)): 4 µg/mL; MIC values of evolved MG1655, strain AZI120 (AZI120 (evolved MG1655)): 4 µg/mL; MIC values of evolved MG1655, strain COL120 (COL120 (evolved MG1655); [15]): 4 µg/mL; MIC values of evolved MG1655, strain DOX120 (DOX120 (evolved MG1655)): 2 µg/mL |
